Here are results for 1 compound from patent US7470821B2, “Aldolase-inhibiting aromatic compounds” (Valorisation-Recherche, Limited Partnership, priority 2003, dated 2008).

Where a chain is given by its changes, count along the chain named. “And” between values parts separate entries of the source, which are not always exact repeats. Equal entries are not always repeated. Where two headings read alike, the source gives them in different places.

In assay [1] the target is T1, K229M mutant RM aldolase (Oryctolagus cuniculus, UniProt P00883, K230M).
T1 construct: made in house
T1 sequence (P00883 1-364 K230M): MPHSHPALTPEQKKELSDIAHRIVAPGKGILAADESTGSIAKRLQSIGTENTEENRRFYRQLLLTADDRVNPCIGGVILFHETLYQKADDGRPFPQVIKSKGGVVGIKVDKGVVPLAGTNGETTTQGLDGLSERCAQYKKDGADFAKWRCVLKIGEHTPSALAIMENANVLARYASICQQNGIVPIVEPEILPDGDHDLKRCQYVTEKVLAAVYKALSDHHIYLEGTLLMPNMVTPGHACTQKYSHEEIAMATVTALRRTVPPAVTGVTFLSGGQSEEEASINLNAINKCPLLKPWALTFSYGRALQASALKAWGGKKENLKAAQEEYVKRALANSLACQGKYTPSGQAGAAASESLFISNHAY
Put plainly: UV-visible differential spectroscopy (method A) with mutated aldolase K229M. As to conditions: FHN-P 300 μM; for kapp: 431 nm. Type of assay: binding, rabbit. As to the method:
(§1) For method A, absorption spectra are recorded as a function of time, between 250 and 500 nm, or at wavelengths corresponding to maximum or minimum absorption. Measurements are begun by adding FHN-P at varying final concentrations (0.1-1 mM) in the TEA buffer containing a fixed concentration of aldolase (10 μM of subunits). Measured absorption spectra for the enzyme complex are corrected using the absorbance of the buffer, the FHN—P, and the enzyme (measured separately). The differential absorption spectra thus obtained are used to calculate the value of the constants that define the formation of the aldolase-inhibitor complex.
(§2) Every UV-visible differential test spectroscopy test using mutated aldolases (10 μM of subunits) is carried out using method A. • Monitored by Electrospray Ionization Mass Spectrometry (ESI-MS).
(§3) Residues of lysine 106, 146 and 229 residues are located at the active aldolase sites and thus are candidates for causing inactivation by forming a Schiff base with the FHN-P. In order to identify which lysine is responsible for the differential absorbances in the presence of FHN-P, sporadic mutations of these lysine residues were created and named: K107M (Research Collaboratory for Structural Bioinformatics Protein Databank), K146M (Blonski C. et al., 1997, Biochem. J. 323:71-77) and […] (Research Collaboratory for Structural Bioinformatics Protein Databank). […] UV-visible differential spectroscopy (method A) was used to examine formation of the enzyme complex for each sporadic mutation in the presence of a fixed concentration of FHN-P (300 μM).

For assay [2], the target named is T2, K107M mutant RM aldolase (Oryctolagus cuniculus, UniProt P00883, K108M).
T2 construct: made in house
T2 sequence (P00883 1-364 K108M): T1 sequence (P00883 1-364 K230M) with K108M, M230K
As to the kind of experiment: UV-visible differential spectroscopy (method A) with mutated aldolase K107M. Type of assay: binding, rabbit. The following applies: FHN-P 300 μM. On the procedure:
as §1, §2, §3

In assay [3] the target is T3, native (wild-type) rabbit muscle aldolase (Oryctolagus cuniculus, UniProt P00883).
T3 construct: made in house
T3 sequence (P00883 2-364): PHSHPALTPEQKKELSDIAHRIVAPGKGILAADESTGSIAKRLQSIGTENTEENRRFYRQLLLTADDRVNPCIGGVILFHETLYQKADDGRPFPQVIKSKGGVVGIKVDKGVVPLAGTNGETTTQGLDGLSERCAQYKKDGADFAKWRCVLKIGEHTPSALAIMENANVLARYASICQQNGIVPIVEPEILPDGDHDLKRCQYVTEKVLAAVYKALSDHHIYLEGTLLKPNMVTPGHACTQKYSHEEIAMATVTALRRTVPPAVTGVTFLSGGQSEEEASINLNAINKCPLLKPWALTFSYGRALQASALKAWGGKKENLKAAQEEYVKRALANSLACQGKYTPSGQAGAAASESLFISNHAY
As to the kind of experiment: UV-visible differential spectroscopy (method A) of aldolase-inhibitor complex formation. Type of assay: binding. The following applies: for ΔA relative to 432 nm / kapp: wild-type; for kapp: 431 nm. On the procedure: Absorption spectra are measured using a Cary 1E Varian spectrophotometer at 25° C. The same TEA buffer is used for titrations and activity analyses. Absorption spectra are measured by two different methods, in particular as described in Gefflaut T. et al., 1986 (Bioorg. Med. Chem., 4:2043-2054) and Blonski C. et al., 1997 (Biochem J. 323:71-77).
as §1
The apparent first-order rate constant (kapp) and the maximum threshold variations of absorption (ΔAmax) are obtained for each test by applying the slow-binding absorption data to the first-order kinetic equation (or to both first-order kinetic mechanisms). The dissociation constant (Kd) for the Schiff base formed between the FHN-P and the aminocaproic acid is obtained from the absorption differences calculated at equilibrium by using the equation eqn.(2). The value of the dissociation constant (Ki) for the rapidly formed EI complex and that of the constant k2 correspond to the slow formation of the EI* complex resulting from analysis of the values of the first-order constants based on the equations eqn.(1) or eqn.(3).
The slight differences in band positions with the reaction model may be attributed to differences in the FHN-P protein environment in comparison to the model system. The changing spectra of absorbance differences coincides with two distinct first-order mechanisms. The rapid kinetics phase can be seen in a more significant change in absorbance and saturating behavior at a high inhibitor concentration, correlated with a total loss of enzyme activity. A slow kinetics phase can also be seen when the analyses are carried out at saturating concentrations of hexitol-P2 (10 mM). This slow kinetics phase, which corresponds to a constant thirty times weaker and which contributes to one-fourth of the final absorbance variation is not linked to the inhibition observed. At these saturating concentrations, the molar absorption coefficients relative to the linked FHN-P are calculated assuming that the for active aldolase sites are occupied: Δε431=3600±200 M^−1.cm^−1; Δε376=−2140±110 M^−1.cm^−1; Δε293=12480±650 M^−1.cm^−1; and Δε268=5080±250 M^−1.cm^−1.
as §3

Where [4] appears, read: formation of EI* complex, UV-visible differential spectroscopy.
Setting [5] is: FHN-P 300 μM, first (rapid) phase.
[6] abbreviates: FHN-P 300 μM, second (slow) phase.

As to `O=Cc1c(O)ccc2cc(OP(=O)(O)O)ccc12` [FHN-P, 5-formyl-6-hydroxy-2-naphthylphosphate], the Residual specific activity entry in assay [1] is “ud”; in assay [2], 95%; in assay [3] (wild-type aldolase, FHN-P 300 μM), “ud (undetected)”. The “ΔA relative to 432 nm” value is reported as 95% in assay [1] (first (rapid) phase); 25% in assay [1] (second (slow) phase); 30% in assay [2] (slow phase only); 100% in assay [3] (setting [5]); 25% in assay [3] (setting [6]). The kapp turned out to be 0.040 ± 0.0025 min⁻¹ in assay [1] (first (rapid) phase); 0.0015 ± 0.0003 min⁻¹ in assay [1] (second (slow) phase); 0.0015 ± 0.0005 min⁻¹ in assay [2] (slow phase only, 431 nm); 0.045 ± 0.0025 min⁻¹ in assay [3] (setting [5]); 0.0015 ± 0.00035 min⁻¹ in assay [3] (setting [6]). Moreover, the Ki in assay [3] (EI complex, UV-visible differential spectroscopy, FHN-P 0.1-1 mM, aldolase 10 μM subunits, 25° C, read-out: Ki) is 125 ± 25 µM; in assay [3] (calculated from the spectroscopy results, read-out: global inhibition constant Ki*), 0.025 µM and ~0.025 µM. Moreover, the k2 in assay [3] (setting [4]) was determined as 0.067 ± 0.004 min⁻¹. Besides, the t1/2 in assay [3] (setting [4]) was ~6 min. In assay [3] (maximum inhibition, EI* complex), the “stoichiometry of FHN-P linked per tetrameric aldolase” value is 3.9-4.2 mols of FHN-P linked per tetrameric aldolase mole.

As usually defined, the Ki is the equilibrium dissociation constant of an inhibitor or competing ligand from its target.
